Patent publication US20230014447A1 (priority 2019, published 2023)
Values after ≈ are worked out from the molar mass of the structure shown. Read-outs that look alike come from different tables or passages of the source. Marks after values point to notes of the source that are not given here.

System: Legionella pneumophila MMX 7515
Experiment: microbe, parasite or virus in culture
Type: cell-based
Conditions: for MIC: Legionella pneumophila
[1] = MMX7515, 24 h, read-out: MIC (in vitro activity)
[2] = MMX7515, 48 h, read-out: MIC (in vitro activity)

C[C@@H](O)[C@H]1C(=O)N2C(C(=O)O)=C(S[C@@H]3CN[C@H](C(=O)N(C)C)C3)[C@H](C)[C@H]12 [MEM, meropenem]
MIC [1]: 0.25 µg/mL (≈ 0.652 µM) | MIC [2]: 0.5 µg/mL (≈ 1.3 µM)

CN[C@H](CC(C)C)C(=O)N[C@H]1C(=O)N[C@@H](CC(N)=O)C(=O)N[C@H]2C(=O)N[C@H]3C(=O)N[C@H](C(=O)N[C@H](C(=O)O)c4cc(O)cc(O)c4-c4cc3ccc4O)[C@H](O)c3ccc(c(Cl)c3)Oc3cc2cc(c3O[C@@H]2O[C@H](CO)[C@@H](O)[C@H](O)[C@H]2O[C@H]2C[C@](C)(N)[C@H](O)[C@H](C)O2)Oc2ccc(cc2Cl)[C@H]1O [VAN, vancomycin]
MIC [1]: 0.12 µg/mL (≈ 0.0828 µM) | MIC [2]: 0.25 µg/mL (≈ 0.173 µM)

C[C@H]1COc2c(N3CCN(C)CC3)c(F)cc3c(=O)c(C(=O)O)cn1c23 [LVX, levofloxacin]
MIC [1]: 0.5 µg/mL (≈ 1.38 µM) | MIC [2]: 0.5 µg/mL (≈ 1.38 µM)

C=C(C)C1CCC(C)=CC1c1c(O)cc(CCCCC)cc1O (centres unmarked) [CBD, 2-[3-methyl-6-(1-methylethenyl)-2-cyclohexen-1-yl]-5-pentyl-1,3-benzenediol]
MIC [1]: 1 µg/mL (≈ 3.18 µM) | MIC [2]: 1 µg/mL (≈ 3.18 µM) | MIC (MMX7515, read-out: MIC values): 1 µg/mL (≈ 3.18 µM)

gentamicin
MIC (in vitro activity) (L. pneumophila MMX 7515, plate read at 48 hr): 2** μg/mL | MIC (in vitro activity) (Legionella pneumophila MMX 7515, plate read at 24 hr): 1* μg/mL
